Laboratory results published in patent US8841125B2, “Cancer tissue-derived cell mass and a process for preparing same” (Renaissance Energy Investment Co., Ltd., priority 2009, dated 2014).

Test system: cell mass derived from the cancer tissue (surgical specimens of human colon cancer, Example 2)
Assay: Drug sensitivity test with cell masses embedded in collagen gel
Assay type: cell-based
Conditions: 5-FU at 0.01, 0.1, 1, 10 and 100 μg/ml; day 8 vs day 0 of culture; FIG. 4
Protocol: Using 5-FU which is known to inhibit DNA synthesis by binding to a thymidylic acid synthetase involved in the metabolism process necessary for DNA synthesis, a drug sensitivity test on a sample of Example 2 was carried out. The test was carried out by embedding the cell masses (×10 each) derived from the cancer tissue in a collagen gel (CellMatrix type IA (Nitta Gelatin Inc.):5×DMEM (Gibco; 12100-038):buffer solution for gel reconstruction (50 mM NaOH, 260 mM NaHCO3, 200 mM HEPES)=7:2:1), and culturing in 1 cc of STEMPRO serum-free medium (Gibco) for human ES cells in an incubator under the culture conditions of 37° C. and 5% CO2. In addition, 5-FU was applied at a concentration of 0.01 μg/ml, 0.1 μg/ml, 1 μg/ml, 10 μg/ml, and 100 μg/ml, and the states of the cells on days 0 and 8 after culture were compared for evaluation. An increasing rate of the area of the cell mass derived from the cancer tissue was expressed relative to 1 of an increasing rate of the area of the cell mass in the culture without application of a drug.

O=c1[nH]cc(F)c(=O)[nH]1 [5-FU]
proliferation of the cancer cell (increasing rate of the area of the cell mass relative to 1 for culture without drug): concentration-dependently suppressed
